The subject of assay [1] is VPS4B-CHMP2B interaction. In words: Co-immunoprecipitation: disruption of VPS4B-CHMP interaction. The assay is classed as cell-based. On the procedure: HEK293T cells were co-transfected with Flag-tagged target protein, HA-tagged source protein, and GFP-tagged peptide or GFP. Cells were lysed 48 h after transfections with radioimmune precipitation assay buffer (50 mM Tris-HCl pH 7.4, 1% Nonidet P-40, 150 mM NaCl, 1 mM EDTA, 10 mM Na3VO4, 10 mM sodium pyrophosphate, 25 mM NaF, 1× protease inhibitor mixture (Sigma)) for 30 min at 4 °C and co-immunoprecipitated with Flag beads (Clontech). The resulting immunocomplexes were analyzed by immunoblot using the appropriate antibodies. Protein samples were separated using 4–20% Mini-PROTEAN Tris-glycine gels (Bio-Rad) transferred to PVDF membranes and blocked in 5% milk containing PBS-Tween-20 (0.1%) for 1 h. PVDF membranes were then incubated with specified primary antibodies followed by incubation with horseradish peroxidase-conjugated secondary antibodies (anti-mouse HRP-linked, Cell Signaling, catalog #7076, 1:5000; anti-rabbit HRP-linked, Cell Signaling, catalog #7074, 1:5000) and detected using enhanced chemiluminescence (GE Healthcare). HA antibodies were obtained from Santa Cruz (catalog #7392, 1:2000), GFP antibodies were purchased from Abcam (catalog #ab290, 1:2000), and Flag antibodies were purchased from Sigma (catalog #A8592, 1:1000).

The subject of assay [2] is WT a-syn-mediated cytotoxicity in HEK293 cells. In words: Pooled lentiviral 7-mer peptide cytotoxicity screen, WT a-syn + MG132.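 On Slope Norm Reads: reads normalized to total peptide reads per sample with scalar factor.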 The assay is classed as cell-based, human. The source says: We used a lentiviral library of 50,549 7-mer peptides enriched in PPI motifs[13] on a green fluorescent protein (GFP) scaffold (Fig. 1A). We infected cells in a pooled format and the amino acid sequence of each peptide served as its own barcode. By using a low multiplicity of infection followed by puromycin selection, each infected cell expressed one unique GFP-peptide. We screened for peptides that reduced a-syn-mediated cytotoxicity or a-syn oligomers in parallel (Fig. 1A). To cause cytotoxicity relevant to PD, we induced proteostatic stress in HEK293 cells by inhibiting the proteasome with MG132 and overexpressing human WT a-syn associated with idiopathic PD in one screen or the more toxic mutant A53T a-syn associated with familial PD in a second screen. This combination of a-syn overexpression and pharmacological proteasome inhibition led to death of most cells, with only those that expressed a protective peptide surviving. By extracting genomic DNA from the surviving cells and amplifying the peptide coding sequences, we identified the protective peptides (Fig. 1A). To detect a-syn oligomers, we used a protein fragment complementation assay (PCA) of a-syn oligomerization in HEK293 cells. In this assay, human A53T a-syn was fused to either the C- or N-terminal half of yellow fluorescent protein (YFP). No fluorescence is detectable while a-syn exists in monomers but, when a-syn oligomerizes, the two halves of YFP come in close enough proximity to form a functional, spontaneously fluorescent protein. […] Our screens yielded 10 hits (Table S1). The hit with the most reads (i.e., the most abundant) was the same peptide in all screens: IPIQLKA (named PDpep1) (Table S1). We validated the cytoprotective effects of PDpep1 in HEK293 cells overexpressing WT or A53T a-syn (Figs. 1B, S1A), as well as its ability to reduce WT or A53T a-syn oligomers in a luciferase-based PCA[18]–[20] compared to a scrambled control peptide (Figs. 1C, S1B).
HEK293T cells (ATCC, CRL-3216) were maintained in DMEM supplemented with 10% FBS and 1% pen/strep/glutamine, and the appropriate selection antibiotics when required. Lentiviruses were made in a 15 cm dish format by transfecting packaging cells (HEK293T) with a three-plasmid system (expression vector, psPAX2 and pMD2.G) and using Polyjet DNA transfection reagent (FroggaBio, SL100688.1). Viral transduction of HEK293T cells were performed with a multiplicity of infection (MOI) of 0.3. Infected cells were selected in puromycin-containing medium to eliminate uninfected cells and three aliquots of cells were collected for sampling of the initial (T0) cell population. Cells were treated with MG132 at concentrations of 0, 10, 25, or 50 µM. For the cell viability screen, surviving cells were collected and gDNA was extracted for identification of peptide inhibitors of cell toxicity. For the inhibition of a-syn aggregation screen, a protein fragment complementation assay (PCA) was used by transfecting cells with split YFP-a-syn constructs following stable expression of the peptides. Cells were sorted based on their YFP fluorescence intensities with a FACSVantage SE cell sorter (BD Bioscience) and gDNA was extracted for identification of peptides.
Genomic DNA (gDNA) from peptide expressing cells at different time-points was extracted using QIAamp DNA Blood Mini Kit. PCR amplifications of peptides from gDNA in parallel with the lentiviral plasmid library (naïve library) were performed using indexed Illumina PCR primers to incorporate both the Illumina adapter sequences and indexing sequences. Each 50 μl reaction contained 3.2 μg of template, 2× PCR buffer, 2× enhancer solution, 300 μM each dNTP, 900 nM each of Adapter A (5′-[…]-[…]-3′) and Adapter B (5′-[…]-[…]-3′), 1 mM MgSO4, 3.75 units of Platinum Pfx polymerase, and water to 50 μl. […]

DEEIERQLKALG [PDpep1.3]: in assay [1], the “Effect on VPS4B-CHMP2B interaction” value is “inhibits the CHMP2B-VPS4 interaction”.

In the case of “IPIQLKA [PDpep1, initial screen hit peptide IPIQLKA]”, in assay [2], the “Reads 10M MG132” value came to 1, the “Reads 25M MG132” value is reported as 1629, the “Reads 50M MG132” value is on record as 3375 and the “Slope Norm Reads” value stood at 3.45. The “Reads 0M MG132” value in assay [2] (Illumina reads, average Phred >30) came out at 90.

The record behind these values is publication PMC10115881, “Disrupting the α-synuclein-ESCRT interaction with a peptide inhibitor mitigates neurodegeneration in preclinical models of Parkinson’s disease” (Nature Communications, 2023).
